Reference: patent publication US9943540B2, “Pharmaceutical formulation for the treatment of osteoarthritis containing clodronic acid and hyaluronic acid” (ABIOGEN PHARMA S.P.A., priority 2005, dated 2018)
Entries after “also recorded” stand apart in the source; their conditions may differ.

Assays:
gonarthritis [1] = assay: Preliminary clinical trial of intra-articular infiltration, responders by Womac 20 and Womac 50; assay type: in vivo, patients; conditions: for Womac 20 (responders, 20% improvement in the symptoms) / Womac 50 (responders, 50% improvement in the symptoms): patients with gonarthritis, % of patients
Description: Preliminary clinical trials with the formulations according to the invention were based on the measurement of Womac 20 and Womac 50, ie. a 20% and 50% improvement in the symptoms to establish the responders to the treatment (Ann Rheum Dis. 2005). Recently, to assess the effectiveness of intra-articular clodronic acid, 1 mg of clodronic acid is administered in patients with gonarthritis obtaining an improvement in symptoms which, when evaluated with Womac 50, related to 32% of the patients. 15 patients suffering from gonarthritis received, according to the invention, an infiltration of 2 ml of solution constituted by 20 mg of hyaluronic acid (Hyalgan) together with 1 mg of clodronic acid once a week for 3 weeks. At the end of the infiltration cycle, as reassumed in the following table, 58% of the patients were responders according to Womac 20, and 37% were responders according to Womac 50. […] The final result of 3 weekly infiltrations of the combination of the two drugs was also better than the cycle with 5 weekly infiltrations of hyaluronic acid (Womac 20:51% and Womac 50:30%) or clodronic acid (Womac 20:54% and Womac 50:32%).

[2] = system: damaging effects on the joint structures by Freund's adjuvant; assay: Study on rats: damage to joint structures by Freund's adjuvant; assay type: in vivo
gonarthritis [3] = assay: Clinical trial of intra-articular sodium clodronate in evident gonarthritis; assay type: in vivo, patients
Source text: (§1) The low pH used was dictated by stability problems, +which made less acid values of the solutions unacceptable.

[4] = system: gonalgia and gonarthrosis; assay: Multicenter clinical study of intra-articular clodronate; assay type: in vivo, patients; conditions: 2 mg once a week over 4 consecutive weeks
Source text: as §1

[5] = system: synovitis secondary to knee osteoarthritis; conditions: patients with synovitis secondary to knee osteoarthritis; cited from earlier work
[6] = 2 ml intra-articular infiltration once a week for 3 weeks
[7] = 2 ml intra-articular infiltration once a week for 5 weeks

Compound	improvement in symptoms evaluated with Womac 50 (gonarthritis [1]; 1 mg clodronic acid intra-articular in patients with gonarthritis, regimen not stated, % of the patients) [%]	Womac 20 (responders, 20% improvement in the symptoms) (gonarthritis [1]; [6]) [%]	Womac 50 (responders, 50% improvement in the symptoms) (gonarthritis [1]; [6]) [%]	Womac 20 (responders, 20% improvement in the symptoms) (gonarthritis [1]; [7]) [%]	Womac 50 (responders, 50% improvement in the symptoms) (gonarthritis [1]; [7]) [%]	inhibition of damaging effects on the joint structures by Freund's adjuvant [2]	attenuation of pain and recovery of joint movement (gonarthritis [3]; after 5 intra-articular injections of 2 mg)	adverse events: pain response at the time of the injection (gonarthritis [3]; clodronate alone intra-articularly, acidic solution, observed in the trials of b9 and b10)	response to intra-articular administration [4]	patient's symptomatology [5]
O=P(O)(O)C(Cl)(Cl)P(=O)(O)O [Clodronic acid, clodronic acid]	32	43	27	54	32					
O=P(O)(O)C(Cl)(Cl)P(=O)(O)O [sodium clodronate]						able to inhibit damaging effects on the joint structures	interesting results were observed	some adverse events were also observed; also recorded: normally occurs	best responses	significant improvement
sodium hyaluronate		41	24	51	30					
